Data from patent US10105377B2, “Compounds and nail polish” (Anacor Pharmaceuticals, Inc., priority 2014, dated 2018).

What was measured:
[1] = Tavaborole penetration of fingernails with one, two, or four layers of nail polish (vertical diffusion cells); assay type: in vitro ADME, human; settings: from Tavaborole Topical Solution, 5%; through up to four layers of nail polish
Source text: Female human ex vivo, cadaver fingernails from eight donors were cleaned of any underlying tissue, rinsed with water to remove any additional materials from the surface and then characterized for width, length, thickness, and weight. Four different treatment groups were used to evaluate different nail polish application practices. In the first treatment group, one nail from each of seven donors (randomized to treatment group) was painted according to the first nail polish application practice. In the second treatment group, a second nail from each of seven donors (randomized to treatment group) was painted according to the second nail polish application practice. In the third treatment group, a third nail from each of seven donors (randomized to treatment group) was painted according to the third nail polish application practice. In the fourth treatment group, a fourth nail from each of seven donors (randomized to treatment group) was painted according to the fourth nail polish application practice. […]
Vertical diffusion cells were filled with pre-warmed receiving medium of phosphate buffered saline (pH 7.4) and a small stir bar, and were allowed to equilibrate to 32±1.0° C. The cell volumes were determined prior to initiating the study. […] Prior to dosing, each cell was evaluated for leaks. […]

[2] = ex vivo human cadaver fingernails; relative to ciclopirox; cited from earlier work

penetration through layers of nail polish (in words) [1]: able to penetrate
Compound: OB1OCc2cc(F)ccc21 [tavaborole, 5-fluoro-1,3-dihydro-1-hydroxy-2,1-benzoxaborole]
quantity through the nail compared with ciclopirox [2]: 250 fold
